Laboratory results published in BindingDB's records for PubMed 11356907 (Institut De Recherches Servier, 2001).

Assays:
[1] = target: T1, Amine oxidase [flavin-containing] A (Rattus norvegicus, UniProt P21396)
T1 sequence (P21396 whole entry): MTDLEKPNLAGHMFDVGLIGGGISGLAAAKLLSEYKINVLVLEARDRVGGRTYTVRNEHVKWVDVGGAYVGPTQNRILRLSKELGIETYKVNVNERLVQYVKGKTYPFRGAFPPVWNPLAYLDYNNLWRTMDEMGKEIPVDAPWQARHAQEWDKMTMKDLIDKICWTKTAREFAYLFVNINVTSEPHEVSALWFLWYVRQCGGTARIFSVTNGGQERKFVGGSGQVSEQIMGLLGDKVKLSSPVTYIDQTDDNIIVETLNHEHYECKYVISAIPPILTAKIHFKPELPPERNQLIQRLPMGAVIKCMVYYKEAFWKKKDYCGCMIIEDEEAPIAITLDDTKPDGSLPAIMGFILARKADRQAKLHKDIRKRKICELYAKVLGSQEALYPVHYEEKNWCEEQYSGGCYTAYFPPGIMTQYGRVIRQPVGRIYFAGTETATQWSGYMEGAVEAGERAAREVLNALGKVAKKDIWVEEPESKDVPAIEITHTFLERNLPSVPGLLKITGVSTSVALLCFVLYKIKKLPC

[2] = target: T2, Amine oxidase [flavin-containing] B (Rattus norvegicus, UniProt P19643)
T2 sequence (P19643 whole entry): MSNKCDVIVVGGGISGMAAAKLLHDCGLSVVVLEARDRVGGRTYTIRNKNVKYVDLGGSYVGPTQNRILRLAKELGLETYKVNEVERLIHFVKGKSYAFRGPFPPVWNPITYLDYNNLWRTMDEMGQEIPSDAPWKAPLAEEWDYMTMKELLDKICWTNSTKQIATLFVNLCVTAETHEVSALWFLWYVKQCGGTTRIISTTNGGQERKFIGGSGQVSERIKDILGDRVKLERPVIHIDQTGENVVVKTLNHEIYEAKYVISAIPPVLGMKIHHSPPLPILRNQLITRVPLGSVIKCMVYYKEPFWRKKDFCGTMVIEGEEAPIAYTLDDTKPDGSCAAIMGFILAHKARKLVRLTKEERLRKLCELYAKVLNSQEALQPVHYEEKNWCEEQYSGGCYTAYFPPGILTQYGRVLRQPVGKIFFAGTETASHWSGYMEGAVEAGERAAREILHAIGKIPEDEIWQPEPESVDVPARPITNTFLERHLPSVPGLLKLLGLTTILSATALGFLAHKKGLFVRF

[3] = target: Sodium-dependent noradrenaline transporter (Homo sapiens, UniProt P23975)
Sequence of Sodium-dependent noradrenaline transporter (P23975 whole entry): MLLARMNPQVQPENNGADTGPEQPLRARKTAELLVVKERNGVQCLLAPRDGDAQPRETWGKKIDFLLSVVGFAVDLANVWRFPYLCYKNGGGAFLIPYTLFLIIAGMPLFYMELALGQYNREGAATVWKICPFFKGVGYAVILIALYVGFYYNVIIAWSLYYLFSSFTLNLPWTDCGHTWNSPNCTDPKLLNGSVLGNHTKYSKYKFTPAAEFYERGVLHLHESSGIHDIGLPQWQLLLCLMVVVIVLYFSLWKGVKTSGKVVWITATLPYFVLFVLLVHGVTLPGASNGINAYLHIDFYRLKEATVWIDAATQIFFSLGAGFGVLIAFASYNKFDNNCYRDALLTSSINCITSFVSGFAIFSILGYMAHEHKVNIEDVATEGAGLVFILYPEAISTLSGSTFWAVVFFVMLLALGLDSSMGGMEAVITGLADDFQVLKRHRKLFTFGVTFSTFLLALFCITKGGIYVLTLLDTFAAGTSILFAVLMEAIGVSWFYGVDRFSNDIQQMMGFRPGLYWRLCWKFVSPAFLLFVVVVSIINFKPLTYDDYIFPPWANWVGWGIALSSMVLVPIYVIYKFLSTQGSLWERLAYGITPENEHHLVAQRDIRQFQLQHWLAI

D(2) dopamine receptor [4] = target: D(2) dopamine receptor (Rattus norvegicus, UniProt P61169)
Sequence of D(2) dopamine receptor (Rattus norvegicus, UniProt P61169) (P61169 whole entry): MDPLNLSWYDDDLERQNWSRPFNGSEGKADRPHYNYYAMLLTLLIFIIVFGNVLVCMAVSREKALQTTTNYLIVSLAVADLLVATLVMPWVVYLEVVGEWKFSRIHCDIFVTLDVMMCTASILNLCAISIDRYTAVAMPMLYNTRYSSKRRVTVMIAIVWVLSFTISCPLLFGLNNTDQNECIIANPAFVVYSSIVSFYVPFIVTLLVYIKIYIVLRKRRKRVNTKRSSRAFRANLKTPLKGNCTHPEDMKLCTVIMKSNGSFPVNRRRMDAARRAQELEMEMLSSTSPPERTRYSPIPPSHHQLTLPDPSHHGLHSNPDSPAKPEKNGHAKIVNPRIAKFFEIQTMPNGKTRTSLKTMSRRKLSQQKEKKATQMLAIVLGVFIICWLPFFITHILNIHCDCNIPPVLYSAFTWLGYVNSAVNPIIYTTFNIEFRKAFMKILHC

[5] = target: Beta-2 adrenergic receptor (Homo sapiens, UniProt P07550)
Sequence of Beta-2 adrenergic receptor (P07550 whole entry): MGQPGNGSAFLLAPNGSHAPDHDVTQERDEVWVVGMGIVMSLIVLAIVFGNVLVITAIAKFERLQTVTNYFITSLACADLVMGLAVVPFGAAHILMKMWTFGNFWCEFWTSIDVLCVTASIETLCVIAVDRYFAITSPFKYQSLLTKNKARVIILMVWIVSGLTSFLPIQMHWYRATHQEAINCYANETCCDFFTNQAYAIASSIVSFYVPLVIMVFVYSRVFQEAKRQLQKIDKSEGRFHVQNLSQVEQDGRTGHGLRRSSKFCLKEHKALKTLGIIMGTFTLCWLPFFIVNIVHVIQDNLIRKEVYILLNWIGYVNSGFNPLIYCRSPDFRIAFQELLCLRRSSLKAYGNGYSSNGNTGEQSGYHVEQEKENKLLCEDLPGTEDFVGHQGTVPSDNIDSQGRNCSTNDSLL

D(2) dopamine receptor [6] = target: D(2) dopamine receptor (Homo sapiens, UniProt P14416)
Sequence of D(2) dopamine receptor (Homo sapiens, UniProt P14416) (P14416 whole entry): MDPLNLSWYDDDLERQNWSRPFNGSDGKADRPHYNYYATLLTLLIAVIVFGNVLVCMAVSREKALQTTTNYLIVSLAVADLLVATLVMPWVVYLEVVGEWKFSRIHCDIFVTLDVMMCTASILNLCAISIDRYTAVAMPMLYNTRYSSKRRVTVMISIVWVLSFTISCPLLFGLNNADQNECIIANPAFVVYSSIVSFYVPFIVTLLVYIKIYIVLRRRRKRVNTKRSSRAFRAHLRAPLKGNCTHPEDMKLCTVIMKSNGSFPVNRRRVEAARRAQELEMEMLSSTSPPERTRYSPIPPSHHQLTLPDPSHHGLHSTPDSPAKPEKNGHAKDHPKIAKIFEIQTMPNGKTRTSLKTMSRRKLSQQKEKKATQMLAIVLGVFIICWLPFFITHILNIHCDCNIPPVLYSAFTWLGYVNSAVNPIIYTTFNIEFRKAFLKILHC

[7] = target: T3, Alpha-1A adrenergic receptor (Homo sapiens, UniProt P35348)
T3 sequence (P35348 whole entry): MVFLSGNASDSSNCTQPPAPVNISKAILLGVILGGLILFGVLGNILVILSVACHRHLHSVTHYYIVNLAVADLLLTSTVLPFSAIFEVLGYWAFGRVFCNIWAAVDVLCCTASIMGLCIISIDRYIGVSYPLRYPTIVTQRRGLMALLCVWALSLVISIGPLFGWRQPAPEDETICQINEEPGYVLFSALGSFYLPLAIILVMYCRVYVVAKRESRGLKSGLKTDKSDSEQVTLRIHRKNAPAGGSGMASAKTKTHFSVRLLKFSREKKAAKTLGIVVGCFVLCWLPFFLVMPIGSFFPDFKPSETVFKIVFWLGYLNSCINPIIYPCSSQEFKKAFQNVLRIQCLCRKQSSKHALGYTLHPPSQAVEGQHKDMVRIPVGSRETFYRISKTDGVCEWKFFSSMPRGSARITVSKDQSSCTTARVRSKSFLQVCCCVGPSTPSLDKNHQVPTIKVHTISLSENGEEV

[8] = target: T4, Alpha-2C adrenergic receptor (Homo sapiens, UniProt P18825)
T4 sequence (P18825 whole entry): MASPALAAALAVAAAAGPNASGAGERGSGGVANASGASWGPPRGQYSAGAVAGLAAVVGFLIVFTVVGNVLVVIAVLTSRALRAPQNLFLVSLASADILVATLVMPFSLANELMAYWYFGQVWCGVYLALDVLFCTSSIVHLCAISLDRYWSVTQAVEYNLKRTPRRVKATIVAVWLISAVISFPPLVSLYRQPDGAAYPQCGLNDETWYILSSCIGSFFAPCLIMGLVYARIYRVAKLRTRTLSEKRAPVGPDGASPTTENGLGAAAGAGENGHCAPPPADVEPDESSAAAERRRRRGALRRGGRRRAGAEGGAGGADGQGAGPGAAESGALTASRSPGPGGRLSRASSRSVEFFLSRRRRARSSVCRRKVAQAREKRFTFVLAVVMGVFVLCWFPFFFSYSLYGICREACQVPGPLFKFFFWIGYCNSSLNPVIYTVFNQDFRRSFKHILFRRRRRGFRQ

[9] = target: T5, Alpha-1B adrenergic receptor (Homo sapiens, UniProt P35368)
T5 sequence (P35368 whole entry): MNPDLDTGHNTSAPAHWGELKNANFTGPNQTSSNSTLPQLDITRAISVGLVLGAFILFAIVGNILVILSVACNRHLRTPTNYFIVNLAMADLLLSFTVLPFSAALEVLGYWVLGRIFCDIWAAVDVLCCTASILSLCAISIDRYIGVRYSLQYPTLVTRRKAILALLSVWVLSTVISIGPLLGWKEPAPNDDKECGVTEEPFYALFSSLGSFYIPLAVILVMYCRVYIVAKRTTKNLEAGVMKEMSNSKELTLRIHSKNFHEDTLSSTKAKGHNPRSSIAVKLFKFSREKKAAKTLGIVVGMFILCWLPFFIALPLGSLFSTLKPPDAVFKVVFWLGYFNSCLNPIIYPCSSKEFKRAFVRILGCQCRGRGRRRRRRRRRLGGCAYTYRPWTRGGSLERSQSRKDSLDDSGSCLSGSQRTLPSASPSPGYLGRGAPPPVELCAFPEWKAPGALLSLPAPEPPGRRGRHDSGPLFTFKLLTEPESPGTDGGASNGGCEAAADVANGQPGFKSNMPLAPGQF

[10] = target: T6, Alpha-1D adrenergic receptor (Homo sapiens, UniProt P25100)
T6 sequence (P25100 whole entry): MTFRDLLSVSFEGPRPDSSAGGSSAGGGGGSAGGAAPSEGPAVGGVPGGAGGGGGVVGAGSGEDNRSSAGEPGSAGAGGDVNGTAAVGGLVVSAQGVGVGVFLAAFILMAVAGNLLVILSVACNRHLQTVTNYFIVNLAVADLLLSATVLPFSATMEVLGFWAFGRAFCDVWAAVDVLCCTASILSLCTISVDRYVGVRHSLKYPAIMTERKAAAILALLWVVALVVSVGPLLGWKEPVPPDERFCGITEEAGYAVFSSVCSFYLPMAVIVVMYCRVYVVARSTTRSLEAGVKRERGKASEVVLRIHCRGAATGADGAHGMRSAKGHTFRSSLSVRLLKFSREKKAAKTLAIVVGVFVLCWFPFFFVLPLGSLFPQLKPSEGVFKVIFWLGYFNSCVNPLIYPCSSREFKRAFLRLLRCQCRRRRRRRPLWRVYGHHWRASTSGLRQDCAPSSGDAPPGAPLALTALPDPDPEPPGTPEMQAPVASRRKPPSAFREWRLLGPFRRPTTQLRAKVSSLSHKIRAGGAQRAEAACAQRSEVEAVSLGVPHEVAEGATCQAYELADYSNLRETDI

[11] = target: T7, Alpha-2C adrenergic receptor (Rattus norvegicus, UniProt P22086)
T7 sequence (P22086 whole entry): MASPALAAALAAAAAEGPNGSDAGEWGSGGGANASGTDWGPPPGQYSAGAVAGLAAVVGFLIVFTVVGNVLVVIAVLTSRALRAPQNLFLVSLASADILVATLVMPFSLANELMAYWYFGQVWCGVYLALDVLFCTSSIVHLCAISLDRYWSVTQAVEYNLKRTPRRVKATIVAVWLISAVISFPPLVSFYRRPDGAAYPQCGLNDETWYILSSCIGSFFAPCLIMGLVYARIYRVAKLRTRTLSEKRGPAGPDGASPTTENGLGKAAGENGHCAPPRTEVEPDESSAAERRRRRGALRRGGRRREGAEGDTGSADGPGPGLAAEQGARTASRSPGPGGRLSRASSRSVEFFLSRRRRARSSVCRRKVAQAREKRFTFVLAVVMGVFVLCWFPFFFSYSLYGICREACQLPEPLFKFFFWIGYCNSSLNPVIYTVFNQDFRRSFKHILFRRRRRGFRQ

[12] = target: Norepinephrine transporter (Rattus norvegicus, UniProt Q9JIA2)
[13] = target: T8, Alpha-2A adrenergic receptor (Homo sapiens, UniProt P08913)
T8 sequence (P08913 whole entry): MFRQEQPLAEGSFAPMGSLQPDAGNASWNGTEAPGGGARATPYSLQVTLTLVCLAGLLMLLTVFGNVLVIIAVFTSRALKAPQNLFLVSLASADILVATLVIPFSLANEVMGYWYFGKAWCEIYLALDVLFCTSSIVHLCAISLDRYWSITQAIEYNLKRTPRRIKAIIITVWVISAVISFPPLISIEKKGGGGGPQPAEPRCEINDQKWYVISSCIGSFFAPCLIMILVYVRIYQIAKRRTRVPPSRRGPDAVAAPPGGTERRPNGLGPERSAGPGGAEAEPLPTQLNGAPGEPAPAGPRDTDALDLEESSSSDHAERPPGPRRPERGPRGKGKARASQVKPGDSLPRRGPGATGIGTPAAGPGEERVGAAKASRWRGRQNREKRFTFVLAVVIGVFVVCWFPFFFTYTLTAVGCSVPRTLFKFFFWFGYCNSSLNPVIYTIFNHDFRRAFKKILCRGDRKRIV

c1cnc(N2CCN(Cc3ccc4c(c3)OCO4)CC2)nc1 [NSC_4850]
Ki [1]: > 10000 nM
Ki [2]: > 10000 nM
Ki [3]: > 10000 nM
Ki (D(2) dopamine receptor [4]): 182 nM
Ki [5]: > 10000 nM
Ki (D(2) dopamine receptor [6]): 132 nM
Ki [7]: 813 nM
Ki [8]: 69.2 nM
Ki [9]: 6170 nM
Ki [10]: 219 nM
Ki [11]: 437 nM
Ki [12]: > 10000 nM
Ki [13]: 89.1 nM
